Assay results from patent US7906105B1, “Zinc-activated contrast agents” (Northwestern University, priority 2006, dated 2011).
Values joined by “and” are separate entries in the source; they are usually repeats but may differ in a detail not shown here. Equal values may be shown once. “Also recorded” adds a separate entry of the source.

Tests used:
[1] = Testing of further agents for Zn(II) detection/activation (method not described)
Description: [drawing 1] wherein R═(CH2)n(n=1 or 2).

[2] = Relaxivity measurements with MgCl2; format: physicochemical; conditions: MgCl2, even at 3-fold excess of the dication
Description: (§1) Left: Relaxivity of Compound 1 in the presence of XCl2, where X=Zn, Ca, and Mg. All solutions were made in 100 mM KCl/100 mM HEPES at ph=7.4. Right: Relaxivity of Zn-1, 3:1 (Zn:Gd), following titration of EDTA.
(§2) To test the binding ability of the acetate ligands to Zn(II), relaxivity measurements of 1 were measured in the absence and presence of ZnCl2. The relaxitivity of 1 in HEPES buffer without zinc was 2.34 mM^−1 s^−1, as is typical for small molecule contrast agents for which q=0 (8). […] As ZnCl2 was added, the relaxivity increased to 5.3 mM^−1 s^−1 indicative of a q=1 complex (See FIG. 3, left). Similar studies were conducted using MgCl2 and CaCl2 to test for selectivity of the ligand for zinc over other dications known to have higher cellular concentrations and which have similar binding affinities for carboxylic acids. […] A competitive binding assay gave a dissociation constant of 2.38×10^−4 M for the Gd(III)-Zn(II) complex.

[3] = T1-weighted phantom MR images with Zn(II)
Description: (§3) A. Compound 1 selectivity. Images of a 1 mM solution of Compound 1 in HEPES buffer. (A) HEPES buffer only; (B) Compound 1; (C) Compound 1 with 1 mM ZnCl2; (D) Compound 1 with 1 mM MgCl2; (E) Compound 1 with 1 mM CaCl2. B. Compound 1 sensitivity. Images of a 1 mM solution of Compound 1 in HEPES buffer with varying zinc concentrations. (A) 0 μM Zn; (B) 50 μM Zn; (C) 100 μM Zn; (D) 500 μM Zn; (E) 1 mM Zn. (TR=100.0 ms, TE=14.3 ms, FOV=2.5/2.0 cm, data matrix=256×256. TR=repetition time; TE=echo time; FOV=field of view).
(§4) To evaluate the effectiveness of Compound 1 as an in vivo probe, the stability of Zn-Compound 1 was investigated. Using the commercially available fluorophore FluoZinTM-1 (Invitrogen), the binding constant of zinc can be determined by a competitive assay. Since the Zn(II)-binding regions of the dye and Compound 1 are identical, similar binding constants are to be expected. […] To confirm there was a measurable difference between zinc concentrations, T1 was measured on these same samples on a 14.1 T magnet and on a 1.4 T magnet.

[4] = Competitive binding assay with fluorophore FluoZin-1; conditions: competitive assay against FluoZin-1; read-out: dissociation constant (Kd) of the Gd(III)-Zn(II) complex
Description: as §2, §4

[5] = Stability in 0.1 M phosphate buffer (relaxivity, ICP of supernatant); format: physicochemical
Description: Compound 1 was monitored for 24 hours in a 0.1 M phosphate buffer to determine its stability in solution. Due to the low solubility of GdPO4 (Ksp=10^−22.26 mol^2/L^2) any dissociation of gadolinium from Compound 1 will precipitate, causing a subsequent decrease in relaxivity which was not seen. A more accurate measurement of the amount of gadolinium dissociation can be made from centrifuging the samples and collecting aliquots of the supernatant for evaluation of gadolinium concentration via ICP.

NIH/3T3 cells [6] = experiment: Cellular uptake, Gd(III) by ICP-MS; format: cell-based; conditions: 500 μM
Description: (§5) The cell doubling time for NIH/3T3 cells is around 16 hours and one can see over twice as many cells at 24 hours than at 8 hours as one would expect, implying greater than 99% cell viability. B. Compound 1 is taken up at a constant rate for up to 8 hours.
(§6) Compound 1 was effectively taken up by NIH/3T3 cells at a constant rate for the first 8 hours of treatment. The maximal intracellular concentration of Compound 1 of approximately 10^−14 mol Gd/cell is achieved at 8 hours and maintained up to 24 hours (FIG. 6 B). NIH/3T3 cells were seeded at 10^5 cells per well in 24-well tissue culture plates with Dulbecco's modified Eagle's medium (DMEM) containing 10% bovine calf serum and incubated overnight in a 5% CO2 incubator at 37° C. The media was then changed and Compound 1 added at a concentration of 500 μM. After 2, 4, 8, and 24 hours, cells were washed three times with 1×PBS and exposed to 250 μL of 0.25% trypsin and harvested. Cells were diluted with an equal volume of 0.4% trypan blue and counted on a hemacytometer. For cellular uptake of Compound 1 into cells, cells were incubated with concentrated nitric acid at 70° C. for 3 hours. The dissolved cells were diluted into a 5 ml, solution with 3% nitric acid and 5 ppb of an indium internal standard. The concentration of Gd(III) was then determined using ICP-MS (induction coupled plasma mass spectrometry).

[7] = Relaxivity measurements in the absence and presence of ZnCl2; format: physicochemical
Description: as §1, §2
After 1 was left to equilibrate at 37° C. for 3 days with an excess of zinc, a relaxivity of 9.2 mM^−1 s^−1 was measured, indicating the species has a value of q=2. This measurement corresponds well to a structure proposed by embodiments of the present invention in which the pendant ligands have left the gadolinium for the zinc, leaving two open coordination sites for water to bind. […] Although an understanding of the mechanism is not necessary to practice the present invention and the present invention is not limited to any particular mechanism of action, in some embodiments, this is due to sequestration of Zn(II) by EDTA which leaves the carboxylic acids available to bind to Gd(III) and close the coordination sites (See FIG. 3, right). Adding excess EDTA had no effect on the relaxivity, providing that the Gd(III) ions are not sequestered by EDTA as expected given the high binding constant (˜10^16) for Gd-EDTA for which q=1.
Proton relaxivity measurements on Compound 1 were also performed while titrating with increasing amounts of Zn(II) up to 1:1.4 (Gd: Zn) equivalents. […] The observed linear dependence also rules out the possibility of a 2:1 (Gd:Zn) complex formation.

NIH/3T3 cells [8] = experiment: Cell cytotoxicity, trypan blue staining; format: cell-based; set-up: cell viability: dose or concentration left out as unconfirmed
Description: as §5, §6

[9] = Relaxivity measurements with CaCl2; format: physicochemical; conditions: CaCl2, even at 3-fold excess of the dication
Description: as §1, §2

[10] = T1-weighted phantom MR images with Ca(II); conditions: 4.7 T magnet; 1 mM Compound 1 in HEPES, 1 mM CaCl2
Description: as §3, §4

[11] = T1-weighted phantom MR images with Mg(II); conditions: 4.7 T magnet; 1 mM Compound 1 in HEPES, 1 mM MgCl2
Description: as §3, §4

For Cc1cccc(OCCN2CCN(CC(=O)[O-])CCN(CC(=O)[O-])CCN(CC(=O)[O-])CC2)c1N(CC(=O)[O-])CC(=O)[O-].[Gd+3] [second agent], the “activation towards Zn(II)” value [1] was “little activation”.
In the case of Cc1cccc(OCCCN2CCN(CC(=O)[O-])CCN(CC(=O)[O-])CCN(CC(=O)[O-])CC2)c1N(CC(=O)[O-])CC(=O)[O-].[Gd+3] [Compound 1], the “change in relaxivity values” [2] is reported as “no significant change”, the “MR image intensity in the presence of Zn(II)” value ([3]; 4.7 T magnet, 1 mM Compound 1 in HEPES, 1 mM ZnCl2) is reported as “increase in intensity” and the “levels of Zn(II) that can be detected” value ([3]; in vitro MR images) is reported as “hundreds of micromolar”. The “visualization of difference between 100 μM and 500 μM zinc” value ([3]; phantom images, 1 mM Compound 1, varying zinc concentrations) was “easily visualize the difference”, the Kd [4] was 238 µM and 240 µM and the “decrease in relaxivity (Gd dissociation/precipitation)” value ([5]; 0.1 M phosphate buffer, 24 hours) was “not seen”. The “change in [Gd] of supernatant (ICP)” value ([5]; 0.1 M phosphate buffer, time-points up to 24 hours) was “no significant change”, the “dissociation constant of the gadolinium complex” value ([5]; suggested from phosphate buffer stability) was “on the order of that seen for Gd-DO3A” and the uptake rate (NIH/3T3 cells [6]; first 8 hours of treatment) was “constant rate”. For the same molecule, the maximal intracellular concentration (NIH/3T3 cells [6]; achieved at 8 hours and maintained up to 24 hours) was “approximately 10^−14 mol Gd/cell”, the relaxivity ([7]; HEPES buffer without zinc) was 2.34 mM⁻¹ s⁻¹ and the relaxivity ([7]; HEPES buffer, ZnCl2 added) was 5.3 mM⁻¹ s⁻¹. The relaxivity ([7]; equilibrated at 37° C. for 3 days with an excess of zinc) was 9.2 mM⁻¹ s⁻¹, the increase in relaxivity ([7]; in the presence of Zn(II)) was over 100% and the cell death (NIH/3T3 cells [8]; 0.5 mM, up to 24 hours, trypan blue staining) was “no observable cell death”. The cell viability (NIH/3T3 cells [8]; 24 hours) was “greater than 99%”, the cell proliferation (NIH/3T3 cells [8]; incubation with Compound 1 up to 24 hours) was “Normal proliferation; also recorded: proliferated exponentially at the expected rate” and the “change in relaxivity values” [9] was “no significant change”. For the same molecule, the “MR image difference with Ca(II)” value [10] was “no discernible difference” and the “MR image difference with Mg(II)” value [11] was “no discernible difference”.
